These results are taken from ChEMBL document CHEMBL3739407, “Synthesis and SAR of Imidazo[1,5-a]pyridine derivatives as 5-HT4 receptor partial agonists for the treatment of cognitive disorders associated with Alzheimer's disease” (Eur J Med Chem, 2015).

A short description of series [1]: Volume of distribution at steady state in Wistar rat at 10 mg/kg, po and 5 mg/kg, iv by LC-MS analysis. In kind it is ADME, organism-based. The following applies: in vivo, read-out: Vdss.
The nature of series [2]: Ratio of drug level in brain to plasma in Wistar rat at 10 mg/kg, po and 5 mg/kg, iv. In kind it is ADME, organism-based. The following applies: read-out: BPR.
Series [3] is described as follows: Cmax in Wistar rat at 10 mg/kg, po and 5 mg/kg, iv. In kind it is ADME, organism-based. As to conditions: in vivo.
A short description of series [4]: Oral bioavailability in Wistar rat at 10 mg/kg. In kind it is ADME, organism-based. The following applies: in vivo.
Series [5] is described as follows: Apparent permeability of the compound in human Caco2 cells. In kind it is ADME, cell-based. As to conditions: Caco-2.
The nature of series [6]: AUC (0 to t) in beagle dog at 1 mg/kg, iv administered as 5 mins infusion. In kind it is ADME, organism-based, Canis lupus familiaris. The following applies: in vivo.
A short description of series [7]: AUC (0 to t) in Wistar rat at 1 mg/kg, iv. In kind it is ADME, organism-based. The following applies: in vivo.
A short description of series [8]: AUC (0 to t) in Wistar rat at 3 mg/kg, po. It is filed as ADME, organism-based. The following applies: in vivo.
A short description of series [9]: AUC (0 to t) in beagle dog at 1 mg/kg, po. It is filed as ADME, organism-based, Canis lupus familiaris. The following applies: in vivo.
The nature of series [10]: Cmax in Wistar rat at 3 mg/kg, po. Details: dose 3 mg/kg, route oral. In kind it is ADME, organism-based. The following applies: in vivo.
Series [11] is described as follows: Cmax in beagle dog at 1 mg/kg, po. In kind it is ADME, organism-based, Canis lupus familiaris. Details: dose 1 mg/kg, route oral. As to conditions: in vivo.
Series [12] is described as follows: Apparent volume of distribution in Wistar rat at 1 mg/kg, iv. It is filed as ADME, organism-based. As to conditions: in vivo, read-out: Vd(app).
Series [13] can be described thus: Apparent volume of distribution in beagle dog at 1 mg/kg, iv administered as 5 mins infusion. In kind it is ADME, organism-based, Canis lupus familiaris. The following applies: in vivo, read-out: Vd(app).
Series [14] can be described thus: Tmax in Wistar rat at 3 mg/kg, po. In kind it is ADME, organism-based. As to conditions: in vivo.
Series [15] in a line: Tmax in beagle dog at 1 mg/kg, po. In kind it is ADME, organism-based, Canis lupus familiaris. The following applies: in vivo.
A short description of series [16]: Oral bioavailability in Wistar rat at 3 mg/kg. As to conditions: in vivo. In kind it is ADME, organism-based.
Series [17] in a line: Oral bioavailability in beagle dog at 1 mg/kg. It is filed as ADME, organism-based, Canis lupus familiaris. The following applies: in vivo.

The structures appear in SMILES notation.

As a reminder, the Cmax is the highest concentration seen after dosing. Broadly, the bioavailability is dose-corrected exposure relative to a reference, in per cent. As to `CC(C)c1nc(C(=O)NC2CCN(C3CCOCC3)CC2)c2ccccn12`, the Vd in series [1] amounted to 4.6 L/kg. Further, the Kp in series [2] was found to be 0.31. The peak level in series [3] (Cmax) was 1760 ng/mL. This compound came in with a bioavailability in series [4] of 98%.
For `CC(C)c1nc(C(=O)NC[C@@H]2[C@H]3CN(CC(C)(C)F)C[C@@H]23)c2ccccn12` the same measures were 4.9 L/kg, 0.38, 8.1 ng/mL and 1.5%.
For `CC(C)c1nc(C(=O)NC2CCN(CCF)CC2)c2ccccn12` the same measures were 2.9 L/kg, 1.46, 99 ng/mL and 11%.
For `CC(C)c1nc(C(=O)NC[C@@H]2[C@H]3CN(CC4CCOCC4)C[C@@H]23)c2ccccn12` the same measures were 10.4 L/kg, 0.6, 120 ng/mL and 17%.
Turning to `COCCCN1CCC(CNC(=O)c2nc(C(C)C)n3ccccc23)CC1`, the Vd in series [1] came out at 5.2 L/kg. In series [2], the Kp is 0.22. Moreover, in [3], the highest level (Cmax) was 109 ng/mL. In series [4], this compound came in with a bioavailability of 30%.
For `CC(C)c1nc(C(=O)NC[C@@H]2[C@H]3CN(CC(C)(C)O)C[C@@H]23)c2ccccn12` the same measures were 3.8 L/kg, 0.31, 277 ng/mL and 34%.
Broadly, the Papp is a coefficient for how fast a substance crosses the barrier. As usually defined, the AUC(0-t) is exposure summed from dosing to a finite time, without extrapolation to infinity. High values mean high exposure, low ones low exposure. What is called Tmax is the time at which the peak concentration occurs. `COCCCN1C[C@@H]2[C@@H](CNC(=O)c3nc(C(C)C)n4ccccc34)[C@@H]2C1`: in [5], the Papp came out at 34.8 ×10⁻⁶ cm/s. In addition, the Vd in [1] is 3.7 L/kg; in series [12], 3.7 L/kg; in [13] it was 2.1 L/kg. Besides, the Kp in series [2] turned out to be 0.31. Further, the peak concentration (Cmax) in [3] was found to be 188 ng/mL; in series [10], 188 ng/mL; in series [11] it was 412 ng/mL. In addition, the bioavailability turned out to be 26% in series [4], 26% in series [16] and 94% in series [17]. Also, in [6], the AUC(0-t) at 5 min stood at 1310 ng·h/mL. In addition, the AUC(0-t) in [7] was 389 ng·h/mL; in series [8], 301 ng·h/mL; in series [9], 1220 ng·h/mL. Moreover, the figures for the Tmax in [14] and in [15] were 15 min and 30 min, respectively.
Take `CC(C)c1nc(C(=O)NC2CCN(C(C)C)CC2)c2ccccn12`: the Vd in series [1] was determined as 4.7 L/kg. Besides, the peak level in series [3] (Cmax) was 166 ng/mL. Besides, the bioavailability in [4] was 10%.
Regarding `CC(C)c1nc(C(=O)NC2CCN(CC3(O)CCOCC3)CC2)c2ccccn12`, the Vd in [1] came out at 4.7 L/kg. In [2], the Kp worked out at 0.38. The compound also registered a Cmax in series [3] of 434 ng/mL. The bioavailability in series [4] came out at 63%.
For `CC(C)c1nc(C(=O)NCC2CCN(CC3CCOCC3)CC2)c2ccccn12` the same measures were 4 L/kg, 0.31, 232 ng/mL and 45%.
For `COC(=O)N1CCC(CN2C[C@@H]3[C@@H](CNC(=O)c4nc(C(C)C)n5ccccc45)[C@@H]3C2)CC1` the same measures were 3.3 L/kg, 0.69, 150 ng/mL and 12%.
Take `COCCCN1CCC(NC(=O)c2nc(C(C)C)n3ccccc23)CC1`: in series [1], the Vd was 4.9 L/kg. Also, in [2], the Kp came out at 0.31. Further, the highest level in [3] (Cmax) was 848 ng/mL. This compound came in with a bioavailability in series [4] of 44%.
As to `CC(C)c1nc(C(=O)NC2CCN(CC3CC3)CC2)c2ccccn12`, in [1], the Vd came to 5.3 L/kg. Moreover, the highest concentration (Cmax) in series [3] turned out to be 74 ng/mL. This compound returned a bioavailability in series [4] of 3.7%.
In the case of `CC(C)c1nc(C(=O)NC[C@@H]2[C@H]3CN(C(C)C)C[C@@H]23)c2ccccn12`, in series [1], the Vd came to 7.6 L/kg. Also, the Kp in [2] came to 0.14. Besides, the Cmax in series [3] amounted to 80 ng/mL. The bioavailability in series [4] came to 5%.
